From BindingDB's records for doi:10.1002/cbic.201402650 (Goethe Universität Frankfurt, 2015) come the findings set out here.

Usually IC50 stands for the concentration needed to halve the response being measured.

SMILES strings stand for the structures.

The target of this experiment is T1, Juvenile hormone epoxide hydrolase (Manduca sexta, UniProt Q25489).
T1 sequence (Q25489 whole entry): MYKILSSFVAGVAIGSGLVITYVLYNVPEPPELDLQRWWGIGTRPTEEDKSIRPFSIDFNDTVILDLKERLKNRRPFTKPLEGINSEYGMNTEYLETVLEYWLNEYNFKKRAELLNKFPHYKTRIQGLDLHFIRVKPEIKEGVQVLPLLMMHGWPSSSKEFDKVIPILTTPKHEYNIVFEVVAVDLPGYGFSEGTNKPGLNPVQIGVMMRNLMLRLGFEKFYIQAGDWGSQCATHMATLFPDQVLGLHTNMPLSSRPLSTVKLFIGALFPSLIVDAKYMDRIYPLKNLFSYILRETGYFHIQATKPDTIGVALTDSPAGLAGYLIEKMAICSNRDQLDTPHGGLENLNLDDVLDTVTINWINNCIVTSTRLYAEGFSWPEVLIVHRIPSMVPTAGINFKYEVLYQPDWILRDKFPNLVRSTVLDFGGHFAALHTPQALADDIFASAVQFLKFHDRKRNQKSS
Briefly: Quantitative Reverse Transcriptase Assay. An excerpt:
We used quantitative reverse-transcriptase PCR to measure the RNA levels of certain AMP genes (lysozyme, gallerimycin, moricin and cecropin) in caterpillars of M. sexta and the greater waxmoth G. mellonella challenged with Serratia entomophila or Salmonella enterica, respectively, following injection of different urea lipid compounds.
In turn, `CC(C)CCCCCCCCNC(N)=O` [N-(9-Methyldecyl) urea (2)] came in with an IC50 greater than 100 µM.

Take `CC(C)CCCCCCCCCCNC(N)=O` [N-(11-Methyldodecyl) urea (5)]: the half-maximal inhibitory concentration (IC50) was greater than 100 µM.

In turn, `CCCCCCCCCCCCNC(=O)NCC(C)C` [US8815951, 478] gave a half-inhibitory concentration (IC50) of 2.3 µM.

On to `CCCCCCCCCCCCNC(N)=O` [N-Dodecyl urea (6)], for which the concentration for half-maximal inhibition (IC50) was greater than 100 µM.

As for `CCCCCCCCCCCCCNC(=O)NC` [N-Methyl-N -tridecyl urea (9)], the IC50 amounted to 10 µM.

`CCCCCCCCCCCCNC(=O)NC` [N-Methyl-N -dodecyl urea (4)] showed a 50% inhibitory concentration (IC50) of 10.7 µM.

On to `CCCCCCCCCCCNC(=O)NC` [N-methyl-N -undecyl urea (7)], for which the half-maximal inhibitory concentration (IC50) stood at 4.3 µM.

Molecule `CCCCCCCCCNC(N)=O` [N-nonyl urea (12)] gave a half-maximal inhibitory concentration (IC50) greater than 100 µM.

Consider `CCCCCCCCCNC(=O)NC` [N-Methyl-N -nonyl urea (11)], for which the IC50 was greater than 100 µM.

For `CNC(=O)NCCCCCCCCC(C)C` [N-Methyl-N -(9-methyldecyl) urea (1)], inhibition was half-maximal at 6.5 µM (IC50).

For the molecule `CCCCCCCCCCCCCNC(N)=O` [N-Tridecyl urea (10)], the IC50 is greater than 100 µM.

As to `CNC(=O)NCCCCCCCCCCC(C)C` [N-Methyl-N -(11-methyldodecyl) urea (3)], the IC50 came out at 30 µM.
